pIC50: −log10 of the molar value.
Columns and labels:
T47D [1] = experiment: Growth inhibition of human T47D cells at 1 x 10^-5 M after 24 hrs by MTT assay relative to control; format: functional; details: read-out: GI
NCI-H522 [2] = experiment: Growth inhibition of human NCI-H522 cells at 1 x 10^-5 M after 24 hrs by MTT assay relative to control; format: functional; details: NCI-H522, 24 h, read-out: GI
HCT-15 [3] = experiment: Growth inhibition of human HCT15 cells at 1 x 10^-5 M after 24 hrs by MTT assay relative to control; format: functional; details: HCT-15, 24 h, read-out: GI
PA-1 [4] = experiment: Growth inhibition of human PA1 cells at 1 x 10^-5 M after 24 hrs by MTT assay relative to control; format: functional; details: PA-1, 24 h, read-out: GI
HepG2 [5] = experiment: Growth inhibition of human HepG2 cells at 1 x 10^-5 M after 24 hrs by MTT assay relative to control; format: functional; details: HepG2, 24 h, read-out: GI
T47D [6] = experiment: Growth inhibition of human T47D cells after 24 hrs by MTT assay; format: functional, cell-based
NCI-H522 [7] = experiment: Growth inhibition of human NCI-H522 cells after 24 hrs by MTT assay; format: functional, cell-based; details: NCI-H522, 24 h
HCT-15 [8] = experiment: Growth inhibition of human HCT15 cells after 24 hrs by MTT assay; format: functional, cell-based; details: HCT-15, 24 h
PA-1 [9] = experiment: Growth inhibition of human PA1 cells after 24 hrs by MTT assay; format: functional, cell-based; details: PA-1, 24 h
HepG2 [10] = experiment: Growth inhibition of human HepG2 cells after 24 hrs by MTT assay; format: functional, cell-based; details: HepG2, 24 h
HEK-293T = experiment: Growth inhibition of HEK293T cells after 24 hrs by MTT assay; format: cell-based; details: Homo sapiens
[11] = Selectivity index, ratio of IC50 for HEK293T cells to IC50 for human T47D cells; format: functional
[12] = Selectivity index, ratio of IC50 for HEK293T cells to IC50 for human NCI-H522 cells; format: functional
[13] = Selectivity index, ratio of IC50 for HEK293T cells to IC50 for human HCT15 cells; format: functional
[14] = Selectivity index, ratio of IC50 for HEK293T cells to IC50 for human PA1 cells; format: functional
[15] = Selectivity index, ratio of IC50 for HEK293T cells to IC50 for human HepG2 cells; format: functional

SMILES | inhibition of growth at 10 µM (T47D [1]) [%] | inhibition of growth at 10 µM (NCI-H522 [2]) [%] | inhibition of growth at 10 µM (HCT-15 [3]) [%] | inhibition of growth at 10 µM (PA-1 [4]) [%] | inhibition of growth at 10 µM (HepG2 [5]) [%] | pIC50 (T47D [6]) | pIC50 (NCI-H522 [7]) | pIC50 (HCT-15 [8]) | pIC50 (PA-1 [9]) | pIC50 (HepG2 [10]) | pIC50 (HEK-293T) | Ratio IC50 [11] | Ratio IC50 [12] | Ratio IC50 [13] | Ratio IC50 [14] | Ratio IC50 [15]
O=C1c2nc[nH]c2C(=O)N1CCCN1C(=O)c2nc[nH]c2C1=O | 35 | 10 | 21 | 17 | 34 |  |  |  |  |  |  |  |  |  |  | 
O=C1c2nccnc2C(=O)N1CCCC1OCC2(CO1)COC(CCCN1C(=O)c3nccnc3C1=O)OC2 (stereo not given) | 49 | 43 | 35 | 20 | 53 | 4.70 | 4.55 | 4.64 | 4.36 | 4.91 | 4.25 | 2.5 - 4.5 | 2.5 - 4.5 | 2.5 - 4.5 | 2.5 - 4.5 | 2.5 - 4.5
O=C1c2nc[nH]c2C(=O)N1CCN1C(=O)c2nc[nH]c2C1=O | 21 | 56 | 33 | 24 | 38 | 4.72 | 4.48 | 4.75 | 4.76 | 4.62 | 4.20 | 2.5 - 4.5 | 2.5 - 4.5 | 2.5 - 4.5 | 2.5 - 4.5 | 2.5 - 4.5
CC(CN1C(=O)c2nccnc2C1=O)N1C(=O)c2nccnc2C1=O (stereo not given) | 6 | 4 | 21 | 1 | 1 |  |  |  |  |  |  |  |  |  |  | 
O=C1c2nccnc2C(=O)N1CCN1C(=O)c2nccnc2C1=O | 11 | 30 | 39 | 4 | 7 |  |  |  |  |  |  |  |  |  |  | 
O=C1Cc2ccccc2C(=O)N1CCN1C(=O)Cc2ccccc2C1=O | 8 | 16 | 6 | 9 | 4 |  |  |  |  |  |  |  |  |  |  | 
O=C1Cc2ccccc2C(=O)N1CCCN1CCN(CCCN2C(=O)Cc3ccccc3C2=O)CC1 | 5 | 6 | 1 | 0 | 7 |  |  |  |  |  |  |  |  |  |  | 
O=C1C2CCCCC2C(=O)N1CCCN1CCN(CCCN2C(=O)C3CCCCC3C2=O)CC1 (stereo not given) | 11 | 9 | 8 | 6 | 19 |  |  |  |  |  |  |  |  |  |  | 
CC(CN1C(=O)c2nc[nH]c2C1=O)N1C(=O)c2nc[nH]c2C1=O (stereo not given) | 32 | 3 | 30 | 20 | 36 |  |  |  |  |  |  |  |  |  |  | 
O=C1C2CC=CCC2C(=O)N1CCCC1OCC2(CO1)COC(CCCN1C(=O)C3CC=CCC3C1=O)OC2 (stereo not given) | 39 | 19 | 11 | 7 | 25 |  |  |  |  |  |  |  |  |  |  | 
O=C1c2nc[nH]c2C(=O)N1CCCN1CCN(CCCN2C(=O)c3nc[nH]c3C2=O)CC1 | 0 | 2 | 0 | 0 | 1 |  |  |  |  |  |  |  |  |  |  | 
O=C1c2nc[nH]c2C(=O)N1CCOCCOCCN1C(=O)c2nc[nH]c2C1=O | 37 | 32 | 27 | 19 | 49 |  |  |  |  |  |  |  |  |  |  | 
O=C1Cc2ccccc2C(=O)N1CCOCCOCCN1C(=O)Cc2ccccc2C1=O | 1 | 5 | 0 | 0 | 1 |  |  |  |  |  |  |  |  |  |  | 
O=P1(N(CCCl)CCCl)NCCCO1 (stereo not given) [CYCLOPHOSPHAMIDE ANHYDROUS] | 23 | 11 | 10 | 24 | 22 | 4.16 | 4.16 | 4.12 |  | 4.28 | < 4.00 |  |  |  |  | 
O=C1c2nccnc2C(=O)N1CCCN1C(=O)c2nccnc2C1=O | 13 | 0 | 5 | 16 | 1 |  |  |  |  |  |  |  |  |  |  | 
CC(CN1C(=O)CNCC1=O)N1C(=O)CNCC1=O (stereo not given) | 20 | 16 | 12 | 3 | 22 |  |  |  |  |  |  |  |  |  |  | 

SMILES | inhibition of growth at 10 µM (T47D [1]) [%] | inhibition of growth at 10 µM (NCI-H522 [2]) [%] | inhibition of growth at 10 µM (HCT-15 [3]) [%] | inhibition of growth at 10 µM (PA-1 [4]) [%] | inhibition of growth at 10 µM (HepG2 [5]) [%] | pIC50 (T47D [6]) | pIC50 (NCI-H522 [7]) | pIC50 (HCT-15 [8]) | pIC50 (PA-1 [9]) | pIC50 (HepG2 [10]) | pIC50 (HEK-293T) | Ratio IC50 [11] | Ratio IC50 [12] | Ratio IC50 [13] | Ratio IC50 [14] | Ratio IC50 [15]
O=C1C2CCCCC2C(=O)N1CCOCCOCCN1C(=O)C2CCCCC2C1=O (stereo not given) | 31 | 29 | 51 | 25 | 37 | 4.80 | 4.49 | 4.62 | 4.72 | 4.56 | < 4.00 |  |  |  |  | 
O=C1Cc2ccccc2C(=O)N1CCCC1OCC2(CO1)COC(CCCN1C(=O)Cc3ccccc3C1=O)OC2 (stereo not given) | 1 | 0 | 12 | 0 | 5 |  |  |  |  |  |  |  |  |  |  | 
O=c1[nH]cc(F)c(=O)[nH]1 [FLUOROURACIL] | 24 | 27 | 12 | 7 | 17 |  | 4.25 |  |  | 4.48 | < 4.00 |  |  |  |  | 
O=C1c2nc[nH]c2C(=O)N1CCCC1OCC2(CO1)COC(CCCN1C(=O)c3nc[nH]c3C1=O)OC2 (stereo not given) | 19 | 27 | 11 | 15 | 31 |  |  |  |  |  |  |  |  |  |  | 
O=C1c2nccnc2C(=O)N1CCCN1CCN(CCCN2C(=O)c3nccnc3C2=O)CC1 | 15 | 19 | 10 | 18 | 20 |  |  |  |  |  |  |  |  |  |  | 
O=C1CNCC(=O)N1CCCN1C(=O)CNCC1=O | 31 | 30 | 2 | 19 | 35 |  |  |  |  |  |  |  |  |  |  | 
O=C1c2nccnc2C(=O)N1CCOCCOCCN1C(=O)c2nccnc2C1=O | 39 | 35 | 47 | 38 | 6 |  |  |  |  |  |  |  |  |  |  | 
O=C1CNCC(=O)N1CCCN1CCN(CCCN2C(=O)CNCC2=O)CC1 | 24 | 19 | 14 | 29 | 21 |  |  |  |  |  |  |  |  |  |  | 
C[C@@H]1C[C@@H]([C@H](O)CC2CC(=O)NC(=O)C2)C(=O)[C@@H](C)C1 [CYCLOHEXIMIDE] | 23 | 18 | 21 | 33 | 21 |  | 4.21 | 4.28 |  | 4.26 | < 4.00 |  |  |  |  | 
O=C1CNCC(=O)N1CCCC1OCC2(CO1)COC(CCCN1C(=O)CNCC1=O)OC2 (stereo not given) | 31 | 25 | 21 | 12 | 37 |  |  |  |  |  |  |  |  |  |  | 
O=C1Cc2ccccc2C(=O)N1CCCN1C(=O)Cc2ccccc2C1=O | 11 | 1 | 7 | 15 | 5 |  |  |  |  |  |  |  |  |  |  | 
CC(CN1C(=O)Cc2ccccc2C1=O)N1C(=O)Cc2ccccc2C1=O (stereo not given) | 26 | 16 | 11 | 3 | 21 |  |  |  |  |  |  |  |  |  |  | 
O=C1C2CCCCC2C(=O)N1CCCC1OCC2(CO1)COC(CCCN1C(=O)C3CCCCC3C1=O)OC2 (stereo not given) | 11 | 28 | 21 | 15 | 13 |  |  |  |  |  |  |  |  |  |  | 
O=C1CNCC(=O)N1CCOCCOCCN1C(=O)CNCC1=O | 1 | 3 | 0 | 0 | 0 |  |  |  |  |  |  |  |  |  |  | 
O=C1C2CC=CCC2C(=O)N1CCCN1CCN(CCCN2C(=O)C3CC=CCC3C2=O)CC1 (stereo not given) | 29 | 37 | 18 | 10 | 39 |  |  |  |  |  |  |  |  |  |  | 
O=C1CNCC(=O)N1CCN1C(=O)CNCC1=O | 38 | 30 | 30 | 20 | 15 |  |  |  |  |  |  |  |  |  |  | 

Source: ChEMBL document CHEMBL4041541, “Solvent free, catalyst free, microwave or grinding assisted synthesis of bis-cyclic imide derivatives and their evaluation for anticancer activity” (Bioorg Med Chem Lett, 2017)
